Assay results reported in PubChem BioAssay AID248 (DTP/NCI, 2004).
Where “and” joins values, the source holds several entries; their conditions need not be identical. Equal values may be shown once. Toxic doses and inconclusive results are not listed. Rule as the data show it: active = T/C of 150% or more; inactive = T/C below 125%.

Test system: L1210 leukemia ip in BDF1 mice, survival T/C
Assay: NCI In Vivo Anticancer Drug Screen. Data for tumor model L1210 Leukemia (intraperitoneal) in B6D2F1 (BDF1) mice
Settings: endpoint: mean survival time, higher = longer survival
How it was run: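 Transplanted-tumor mice were given test agent; controls received vehicle only. Survival readings from the two groups were divided (treated over control).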

[1] = dose: 400.0 mg/kg/injection, schedule: Q01DX001 (ip), vehicle: saline with Tween-80

Measured: T/C

COc1cccc2c1C(=O)c1c(O)c3c(c(O)c1C2=O)CC(O)(C(C)=O)CC3OC1CC(NC(=O)C(F)(F)F)C(O)C(C)O1 (stereo unspecified)
inactive: dose: 0.25 mg/kg/injection, schedule: Q04DX003 (ip), vehicle: water 96 % of control | dose: 0.5 mg/kg/injection, schedule: Q04DX003 (ip), vehicle: water 95 % of control | dose: 1.0 mg/kg/injection, schedule: Q04DX003 (ip), vehicle: water 106 % of control | dose: 2.0 mg/kg/injection, schedule: Q04DX003 (ip), vehicle: water 111 % of control | dose: 4.0 mg/kg/injection, schedule: Q04DX003 (ip), vehicle: water 98 % of control | dose: 8.0 mg/kg/injection, schedule: Q04DX003 (ip), vehicle: water 90 % of control | dose: 14.0 mg/kg/injection, schedule: Q04DX003 (ip), vehicle: water 107 % of control | dose: 16.0 mg/kg/injection, schedule: Q04DX003 (ip), vehicle: water 101 % of control | dose: 21.0 mg/kg/injection, schedule: Q04DX003 (ip), vehicle: water 113 % of control | dose: 25.0 mg/kg/injection, schedule: Q04DX003 (ip), vehicle: water 110 % of control | dose: 32.0 mg/kg/injection, schedule: Q04DX003 (ip), vehicle: water 110 % of control | dose: 50.0 mg/kg/injection, schedule: Q04DX003 (ip), vehicle: water 107 % of control and 112 % of control | dose: 100.0 mg/kg/injection, schedule: Q04DX003 (ip), vehicle: water 112 % of control

c1cc2c(cc1-c1nnc(-c3ccc4c(c3)OCO4)nn1)OCO2
inactive: [1] 86 % of control

CCC(=O)Nc1cccc(OC(=O)NCC(C)C)c1
inactive: dose: 100.0 mg/kg/injection, schedule: Q01DX009 (ip), vehicle: saline with Tween-80 92 % of control | dose: 200.0 mg/kg/injection, schedule: Q01DX009 (ip), vehicle: saline with Tween-80 94 % of control | dose: 400.0 mg/kg/injection, schedule: Q01DX009 (ip), vehicle: saline with Tween-80 91 % of control

CSc1ccc(NC(=O)Oc2ccc3c(C)cc(=O)oc3c2)cc1
inactive: dose: 25.0 mg/kg/injection, schedule: Q01DX009 (ip), vehicle: saline with Tween-80 93 % of control and 100 % of control | dose: 50.0 mg/kg/injection, schedule: Q01DX009 (ip), vehicle: saline with Tween-80 95 % of control and 89 % of control | dose: 100.0 mg/kg/injection, schedule: Q01DX001 (ip), vehicle: saline with Tween-80 94 % of control | dose: 100.0 mg/kg/injection, schedule: Q04DX002 (ip), vehicle: saline with Tween-80 98 % of control and 91 % of control | dose: 100.0 mg/kg/injection, schedule: Q04DX003 (ip), vehicle: saline with Tween-80 87 % of control | dose: 200.0 mg/kg/injection, schedule: Q01DX001 (ip), vehicle: saline with Tween-80 94 % of control | dose: 200.0 mg/kg/injection, schedule: Q04DX002 (ip), vehicle: saline with Tween-80 94 % of control and 91 % of control | dose: 200.0 mg/kg/injection, schedule: Q04DX003 (ip), vehicle: saline with Tween-80 86 % of control | [1] 96 % of control | dose: 400.0 mg/kg/injection, schedule: Q04DX002 (ip), vehicle: saline with Tween-80 96 % of control and 98 % of control | dose: 400.0 mg/kg/injection, schedule: Q04DX003 (ip), vehicle: saline with Tween-80 95 % of control

Cc1nn(C(N)=S)c(C)c1N=Nc1cccc(Cl)c1
inactive: dose: 75.0 mg/kg/injection, schedule: Q01DX001 (ip), vehicle: other 96 % of control | dose: 150.0 mg/kg/injection, schedule: Q01DX001 (ip), vehicle: other 100 % of control | dose: 300.0 mg/kg/injection, schedule: Q01DX001 (ip), vehicle: other 105 % of control
